This passage reports IC50 results from US9126978B2, “1,4-benzodiazepine-2,5-diones and related compounds with therapeutic properties” (The Regents of the University of Michigan, priority 2009, dated 2015).

The target in assay [1] is ROCK-I (h, amino acids 17-535) (Homo sapiens (Human), UniProt Q13464). As to the kind of experiment: ROCK-I (h) inhibition assay. It counts as biochemical. As to conditions: radiometric [γ-32P-ATP] filter assay, 40 minutes at room temperature; read-out: ROCK1 IC50. The protocol:
ROCK-I (h) Inhibition Assay:
In a final reaction volume of 25 μL, ROCK-I (h, amino acids 17-535) (5-10 mU) was incubated with 8 mM MOPS pH 7.0, 0.2 mM EDTA, 30 μM […], 10 mM magnesium acetate and [γ-^32P-ATP] (specific activity approx. 500 cpm/pmol, concentration as required). The reaction was initiated by the addition of the MgATP mix. After incubation for 40 minutes at room temperature, the reaction was stopped by the addition of 5 μL of a 3% phosphoric acid solution. 10 μL of the reaction was then spotted onto a P30 filtermat and washed three times for 5 minutes in 75 mM phosphoric acid and once in methanol prior to drying and scintillation counting.

In assay [2] the target is ROCK-II (h, amino acids 11-552) (Homo sapiens (Human), UniProt O75116). As to the kind of experiment: ROCK-II (h) inhibition assay. As to conditions: radiometric [γ-32P-ATP] filter assay, 40 minutes at room temperature; read-out: ROCK2 IC50. It counts as biochemical. The protocol:
ROCK-II (h) Inhibition Assay:
In a final reaction volume of 25 μL, ROCK-II (h, amino acids 11-552) (5-10 mU) was incubated with 50 mM Tris pH 7.5, 0.1 mM EGTA, 30 μM […], 10 mM magnesium acetate and [γ-^32P-ATP] (specific activity approx. 500 cpm/pmol, concentration as required). The reaction was initiated by the addition of the MgATP mix. After incubation for 40 minutes at room temperature, the reaction was stopped by the addition of 5 μL of a 3% phosphoric acid solution. 10 μL of the reaction was then spotted onto a P30 filter-mat and washed three times for 5 minutes in 75 mM phosphoric acid and once in methanol prior to drying and scintillation counting.

pIC50: −log10 of the molar value. Bounds are passed on as bounds.

Sequence of ROCK-II (h, amino acids 11-552) (O75116 11-552): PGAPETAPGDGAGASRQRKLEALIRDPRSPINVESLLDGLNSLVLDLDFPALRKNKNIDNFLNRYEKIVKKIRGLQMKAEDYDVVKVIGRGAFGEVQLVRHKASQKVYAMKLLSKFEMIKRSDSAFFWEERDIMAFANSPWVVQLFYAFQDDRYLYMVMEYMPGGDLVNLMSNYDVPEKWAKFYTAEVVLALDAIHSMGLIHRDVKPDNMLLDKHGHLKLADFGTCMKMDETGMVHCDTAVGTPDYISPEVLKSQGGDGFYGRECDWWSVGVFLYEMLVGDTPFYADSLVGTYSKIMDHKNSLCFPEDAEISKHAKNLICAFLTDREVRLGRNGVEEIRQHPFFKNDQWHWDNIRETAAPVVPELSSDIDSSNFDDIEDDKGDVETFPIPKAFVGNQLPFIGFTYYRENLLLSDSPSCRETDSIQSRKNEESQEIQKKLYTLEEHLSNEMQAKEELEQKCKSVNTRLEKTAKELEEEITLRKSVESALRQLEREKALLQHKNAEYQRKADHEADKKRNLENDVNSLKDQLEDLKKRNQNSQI
Sequence of ROCK-I (h, amino acids 17-535) (Q13464 17-535): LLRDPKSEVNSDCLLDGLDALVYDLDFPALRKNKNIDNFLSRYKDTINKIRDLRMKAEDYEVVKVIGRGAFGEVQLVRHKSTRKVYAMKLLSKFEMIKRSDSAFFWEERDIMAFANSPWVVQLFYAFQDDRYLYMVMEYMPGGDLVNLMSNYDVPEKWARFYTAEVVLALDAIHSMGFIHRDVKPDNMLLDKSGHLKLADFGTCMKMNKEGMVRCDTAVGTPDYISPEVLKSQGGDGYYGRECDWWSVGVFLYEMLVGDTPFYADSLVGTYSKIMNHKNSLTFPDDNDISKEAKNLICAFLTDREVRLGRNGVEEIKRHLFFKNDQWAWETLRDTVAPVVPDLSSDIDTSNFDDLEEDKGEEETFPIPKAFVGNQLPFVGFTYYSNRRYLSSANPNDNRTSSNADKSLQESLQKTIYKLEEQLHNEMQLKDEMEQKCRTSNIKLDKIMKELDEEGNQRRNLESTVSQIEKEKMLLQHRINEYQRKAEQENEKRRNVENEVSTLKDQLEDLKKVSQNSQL

As a reminder, the pIC50 is the negative decadic logarithm of the IC50, by convention in mol/L. Take `CN1C(=O)[C@@H](Cc2ccc(-c3ccncc3)cc2)NC(=O)c2cc(Cl)ccc21` [Compound 1, (R)-7-chloro-1-methyl-3-(4-(pyridin-4-yl)benzyl)-3,4-dihydro-1H-benzo[e][1,4]diazepine-2,5-dione]: the pIC50 in assay [1] was below 4.52; in assay [2], 5.96.
As for `C[C@@]1(Cc2ccc(-c3ccncc3)cc2)NC(=O)c2cc(Cl)ccc2NC1=O` [Compound 2, (S)-7-chloro-3-methyl-3-(4-(pyridin-4-yl)benzyl)-3,4-dihydro-1H-benzo[e][1,4]diazepine-2,5-dione], in assay [1], the negative logarithm of the IC50 (pIC50) is below 5.00.
With `CN1C(=O)[C@@H](Cc2ccc(-c3ccncc3)cc2)NC(=O)c2c(Cl)cccc21` [Compound 3, (R)-6-chloro-1-methyl-3-(4-(pyridin-4-yl)benzyl)-3,4-dihydro-1H-benzo[e][1,4]diazepine-2,5-dione], the pIC50 in assay [1] was below 4.52; in assay [2], 6.07.
As to `CN1C(=O)[C@@H](Cc2ccc(-c3ccncc3)cc2)NC(=O)c2ccc(Cl)cc21` [Compound 4, (R)-8-chloro-1-methyl-3-(4-(pyridin-4-yl)benzyl)-3,4-dihydro-1H-benzo[e][1,4]diazepine-2,5-dione], the pIC50 in assay [1] is below 5.00; in assay [2] it was 6.10.
In the case of `CN1C(=O)[C@@H](Cc2ccc(-c3ccncc3)cc2)NC(=O)c2cccc(Cl)c21` [Compound 5, (R)-9-chloro-1-methyl-3-(4-(pyridin-4-yl)benzyl)-3,4-dihydro-1H-benzo[e][1,4]diazepine-2,5-dione], the pIC50 in assay [1] was below 5.00.
